B1: RANKL: Receptor-activator of nuclear factor kappa-β ligand, Peprotech (protein, UniProt O14788 140-317, looked up)
Tumor necrosis factor ligand …: IRAEKAMVDGSWLDLAKRSKLEAQPFAHLTINATDIPSGSHKVSLSSWYHDRGWAKISNMTFSNGKLIVNQDGFYYLYANICFRHHETSGDLATEYLQLMVYVTKTSIKIPSSHTLMKGGSTKYWSGNSEFHFYSINVGGFFKLRSGEEISIEVSNPSLLDPDQDATYFGAFKVRDID

Legend:
RAW264.7 cells = test: RANKL-induced transcription of osteoclastogenesis markers in RAW264.7 cells (real-time PCR); assay type: cell-based, murine; conditions: 72 h
Experimental: (§1) Total RNA was extracted using RNeasy isolation kits, cDNAs were obtained using QuantiTect Reverse Transcription kits, and real-time PCRs were performed with QuantiTect SYBR Green PCR kits (all from Qiagen, Hilden, Germany), according to the manufacturer instructions. The primers used for the real-time PCRs and their annealing temperatures are listed in the Additional file 1: Table S1. Human hypoxanthine phosphoribosyltransferase 1 (HPRT1) or murine β2-microglobulin were followed as housekeeping genes. The real-time PCR programme consisted of an initial 15 min at 95 °C, and then 45 cycles as follows: 94 °C for 15 s, annealing temperature of each primer for 30 s, and 72 °C for 30 s. The real-time PCR machine used was a LightCycler 480 Instrument II (Roche, Indianapolis, IN, USA).
For transient interference of Gpr55, RAW264.7 cells were plated at 6 × 10^5 cells/well in six-well plates in growth medium without antibiotics. Twenty-four hours later, the cells were transfected with 250 pmol/well non-targeting small-interfering (si)RNAs (si-NT; siGENOME siRNA Pool #2; D-001206-14; Dharmacon, Chicago, IL, USA) or Gpr55-specific siRNAs (si-GPR55; siGENOME mouse GPR55 SMART pool; M-043590-01; Dharmacon) using Lipofectamine LTX and Plus Reagent, according to the manufacturer instructions. Twenty-four hours later, the cells were plated for the different assays or for RNA extraction. The efficiency of interference was monitored by real-time PCR after 72 h of interference, using the primers listed in the Additional file 1: Table S1. β2-microglobulin was followed as a housekeeping gene.
(§2) For the osteoclastogenesis in-vitro assay, RAW264.7 cells were plated in differentiation medium (α-MEM with 10% heat-inactivated FBS, 2 mM L-glutamine, 100 U/mL penicillin, and 100 ug/mL streptomycin) at a density of 5 × 10^3 cells/well in 24-well plates on coverslips for morphological analysis, or at 2 × 10^4 cells/well in six-well plates for RNA extraction. Twenty-four hours later and every 48 h, the medium was replaced and the cells were treated with 15–30 ng/mL RANKL with DMSO and/or PBS as carriers, or with GPR55 antagonists/ agonists (0.5 µM ML-191, 30 µM O1918, 0.5 µM CBD, 0.5 μM CID16020046 1 µM soybean LPI, 1 μM ML-184), or with the peptides (150 nM peptide-P1; or the irrelevant peptide, Irr_P). Twenty-four hours after the last addition, the cells were fixed with 4% paraformaldehyde for morphological analyses or harvested for RNA extraction (see above).

endogenous GPR55 (HeLa) = test: LPI-induced ERK/p38 phosphorylation in shCTRL-HeLa clones (Western blot); assay type: cell-based, human; conditions: 10 µM soybean LPI
Experimental: For stable interference of GPR55, HeLa cells were plated at 1.5 × 10^5 cells/well in six-well plates in growth medium without antibiotics, and 24 h later, the cells were transfected with 1.7 µg/well OmicsLink short hairpin (sh)RNA expression clone CSHCTR001-CU6 (shCTRL) or clone HSH022476-3-CU6 (shGPR55) from GeneCopoeia (Rockville, MD, USA), using Lipofectamine 2000, according the manufacturer instructions. Forty-eight hours after transfection, HeLa clones stably expressing shRNAs were selected in growth medium containing 0.3 µg/mL puromycin. The efficiency of interference was monitored by real-time PCR using the primers listed in the Additional file 1: Table S1. HPRT1 was followed as a housekeeping gene.
Twenty-four hours after transfection (HEK293T, HeLa cells or clones) or 72 h after interference (RAW264.7 cells), the cells were washed twice with HBSS^++, serum deprived (HEK293T cells for 4 h in DMEM; HeLa cells and clones for 2 h in MEM plus 2 mM glutamine and 25 mM HEPES; RAW264.7 cells for 2 h in DMEM), washed once again with HBSS^++, incubated in stimulation buffer (HBSS^++ with 10 mM HEPES, 0.4% faf-BSA for HEK293T cells; HBSS^++ with 25 mM HEPES and 0.01% faf-BSA for HeLa cells, clones, and RAW264.7 cells) in the absence or presence of stimuli, at 37 °C for the indicated times. Incubations were terminated by washing the cells twice with cold HBSS^++, and the analyses were performed as reported below.
Cell lysates were obtained by scraping the cells into phospho-lysis buffer: 50 mM Tris–HCl, pH 7.5, 100 mM NaCl, 5 mM EDTA, 1% Triton X-100, 50 mM NaF, 40 mM β-glycerophosphate, 200 µM sodium orthovanadate, plus protease and phosphatase inhibitors (Roche). Following gentle homogenisation by 20 passages through a 26-gauge needle, the lysates were centrifuged at 10,000×g for 5 min at 4 °C, and the supernatants were collected.
Protein lysates were subjected to SDS-PAGE, and after electrophoresis, the proteins were transferred to a nitrocellulose membrane (PerkinElmer Life Science, Boston, MA, USA). For immunoblotting, the membranes were blocked with 5% non-fat milk in TBS (10 mM Tris–HCl, pH 7.4, 10 mM NaCl) plus 0.1% Tween-20 (T-TBS) for 30 min at room temperature, and incubated with primary antibodies in T-TBS plus 3% BSA for 2 h at room temperature, or overnight at 4 °C. The membranes were washed twice in T-TBS for 7 min, and then incubated with secondary antibodies conjugated to horseradish peroxidase (1:5,000) (Calbiochem, San Diego, CA, USA) in T-TBS with 5% non-fat milk for 30 min at room temperature. The membranes were then washed twice with T-TBS and once with TBS for 5 min, and the signals were detected by ECL (Amersham Pharmacia, Piscataway, NJ, USA). The rabbit anti-phospho AKT (Ser473), anti-phospho p38 (Thr180/Tyr182), anti-phospho p42/44 (Thr202/Tyr204), anti-p38 (all at dilution 1:1000) were from Cell Signaling Technology (Danvers, MA, USA). The rabbit anti-AKT (B-1), and anti-p42/44 (ERK1; K-23) were from Santa Cruz Biotechnology.

[1] = tested on: Gpr55 mRNA in RAW264.7 cells; test: Modulation of Gpr55 mRNA levels by receptor ligands in RANKL-treated RAW264.7 cells; assay type: cell-based, murine; conditions: 72 h; for Gpr55 mRNA levels (fold non-differentiated): alone or + 1 μM soybean LPI, 0.5 μM ML-191, 0.5 μM CBD or 30 μM O1918, means ± SEM of at least three independent experiments
Experimental: as §1, §2

[2] = tested on: osteoclasts derived from RAW264.7 cells; test: Osteoclast functional assay (bone resorption on bovine cortical bone slices); assay type: cell-based, murine; conditions: 15 ng/mL RANKL, 7 days; at least three independent experiments
Experimental: RAW264.7 cells were plated in differentiation medium at a density of 1250 cells/100 µL on 0.2-mm-thick bovine cortical bone slices (BoneSlices.com, Jelling, Denmark) in 96-well plates. Six hours later, 100 µL differentiation medium with RANKL (15 ng/mL, final concentration) was added, in the presence of a carrier or in combination with the GPR55 modulators. The media with the different compounds were replaced every 48 h, for a total of 7 days. At the end of this period, the cells were detached with a 10% bleach solution, and the resorption excavations were visualised by using Toluidine Blue staining (Sigma-Aldrich). Images of the resorption areas were obtained under the microscope (SW380T; Swift Optical Instruments, Inc., TX, USA) using the 10 × objective, and acquired with a digital camera (Swiftcam SC1003; Swift Optical Instruments, Inc.). The total eroded surface underwent blinded quantification using ImageJ (NIH), and was subdivided into pit and trench surfaces. Pits were characterised as round excavations with well-defined edges where the ratio between length and width was < 2.0. Trenches were defined as elongated excavations with well-defined edges whose length was at least twice the wide, and with clear signs of continued resorption. The prevalence of trenches was calculated as a proportion (%) of the trench surface relative to the total eroded surface.

[3] = 15–30 ng/mL RANKL, 0.5 µM ML-191, 0.5 µM CBD, 30 µM O1918, four independent experiments
[4] = 30 µM ML-191, 10 µM CBD or 10 µM O1918
[5] = 10 min, 10 µM CBD or 30 µM ML-191, relative to CBD or ML-191 basal level
[6] = 30 ng/mL RANKL, mean ± range of two independent experiments

Row | Molecule | RANKL-induced transcription of Ctr, si-NT versus si-GPR55 cells (RAW264.7 cells; RANKL 15 ng/mL, 1 µM soybean LPI or 1 µM ML-184) | effect on RANKL-induced Mmp-9 mRNA (RAW264.7 cells; 15–30 ng/mL RANKL, 0.5 µM CBD, 30 µM O1918) | effect on RANKL-induced Ctr mRNA (RAW264.7 cells; [3]) | reduction of RANKL-induced Cathepsin-k mRNA (RAW264.7 cells; [3]) [%] | reduction of RANKL-induced Nfatc1 mRNA (RAW264.7 cells; [3]) [%] | reduction of RANKL-induced Trap mRNA (RAW264.7 cells; [3]) [%] | inhibition of LPI stimulation of both ERK2 and p38 phosphorylation at 5 min (endogenous GPR55 (HeLa); [4]) | inhibition of LPI-induced stimulation of ERK1/2 (endogenous GPR55 (HeLa); [4]) | ERK2 phosphorylation upon LPI stimulation in presence of antagonist (endogenous GPR55 (HeLa); [5]) | p38 phosphorylation upon LPI stimulation in presence of antagonist (endogenous GPR55 (HeLa); [5]) | Gpr55 mRNA levels (fold non-differentiated) ([1]; 30 ng/mL RANKL) | further enhancement of RANKL-stimulated Gpr55 mRNA levels ([1]; 0.5 μM ML-191, 0.5 μM CBD, 1 μM soybean LPI, versus RANKL alone) | Cathepsin-k mRNA increase versus undifferentiated cells (RAW264.7 cells; [6]) | Mmp-9 mRNA increase versus undifferentiated cells (RAW264.7 cells; [6]) | Nfatc1 mRNA increase versus undifferentiated cells (RAW264.7 cells; [6]) | Trap mRNA increase versus undifferentiated cells (RAW264.7 cells; [6]) | Gpr55 mRNA increase ([1]; 30 ng/mL RANKL, three independent experiments) | trench surface relative to total eroded surface [2]
1 | Cc1cccc(N2CCN(C(=O)c3cc(S(=O)(=O)N(C)C)ccc3N3CCCC3)CC2)c1C [ML-184] | similarly increased RANKL-induced transcription of Ctr only in precursor cells treated with non-targeting siRNAs, and not in those silenced for GPR55 |  |  |  |  |  |  |  |  |  |  |  |  |  |  |  |  | 
2 | C=C(C)[C@@H]1CCC(C)=C[C@H]1c1c(O)cc(CCCCC)cc1O [CBD, Cannabidiol] |  | not affected | not affected | 44 | 40 | 50 | inhibited LPI stimulation of both ERK2 and p38 phosphorylation at 5 min | strongly inhibited | 3.3 -fold the antagonist basal lev | 1.5 -fold the antagonist basal lev | 27.7 ± 0.5 | 0.7 -fold |  |  |  |  |  | 
3 | B1 |  |  |  |  |  |  |  |  |  |  | 16.1 ± 1.6 |  | 468.5 (±24.3) -fold | 673.3 (±4.7) -fold | 11.9 (±2.2) -fold | 188.8 (±57.6) -fold | 14 -fold | 42 ± 8 % of total eroded surface

From PMC8073907, “Peptide targeting of lysophosphatidylinositol-sensing GPR55 for osteoclastogenesis tuning” (Cell Communication and Signaling : CCS, 2021)
